Assays:
[1] = system: HXB2; test: Drug susceptibility assay (cell-killing MTT assay) in MT-2 cells; conditions: Human immunodeficiency virus 1, HXB2, MT2, 120 h
Description: (§2) The cells were maintained at 37°C, 5% CO2. One day prior to the experiments, the cells were passaged 1:1 in a concentration of 1 × 10^6 cells/ml.
(§3) The genes that contain the drug resistance mutations are excised from the clinical isolates and cloned into the genetic background of HXB2. Thus all tested HIV-1 strains have the same genetic background. […] This strain contains an insertion of two a.a. between codons 68 and 69 of RT as well as an a.a. change at codon 67.
(§4) After 5 days of incubation a cellular viability assay was performed as described above. In this case, the amount of formazan reflects the number of cells protected by the drug against killing by the virus and is used as a read out for drug susceptibility.

[2] = system: MT2 cells
Description: After 5 days of incubation a cellular viability assay was performed as described above.

[3] = Cellular viability assay (MTT) of PBL; assay type: cell-based; conditions: human, 7 days, read-out: TC50
[4] = Cellular viability assay (MTT) of MDM; assay type: cell-based; conditions: human, 7 days, read-out: TC50
[5] = system: HIV-1HXB2; test: Reverse transcription assay in PBMC: (-) strong stop and gag DNA by real-time Taqman PCR; assay type: cell-based; conditions: 10h after infection
Description: PBMC infection with HIV-1Ba-L or HIV-1HXB2 for real-time Taqman PCR The ability of HIV-1Ba-L to enter the cells in the presence of APHS was tested using DS as positive control (entry assay). The amount of HIV-1HXB2 reverse transcription products in the presence of APHS was also tested, using AZT as positive control (reverse transcription assay). Before infection, PHA-stimulated PBMC from the PBMC batch were pre-incubated with different concentrations of APHS, DS or AZT for 24 h. Afterwards, cells were washed and 1 × 10^6 PBMC were incubated for 40 min with HIV-1Ba-L or HIV-1HXB2 at an M.O.I. of 0.0025 and with appropriate concentrations of APHS, AZT, DS or medium in the presence of 1/20 concentrated M buffer (Roche) and 4U/ml DNase (Roche) to digest possible contaminating viral DNA associated with the virions. Afterwards PBMC were washed and resuspended in medium with or without compounds. Cells were treated with 1 mg/ml Pronase (Roche) to remove virus particles bound to the cells. […] At different time points, 1.0 × 10^6 cells were added to 900 µl Nuclisens lysis buffer (Organon Teknika, Boxtel, The Netherlands) containing 40 µl silica to bind total nucleic acids (Nuclisens isolation kit). For the entry assay, samples were collected 2h after the start of the infection and for the reverse transcription assays samples were collected 2, 7 and 10h after the start of the infection.
HIV RNA and DNA were extracted from samples of infected cells according to a method described before ^23. Briefly, after 10 min of mixing the silica and lysis buffer, tubes were shortly centrifuged at 13,000 rpm and supernatant was discarded. Free non-nucleic acid components were removed by washing the silica particles twice with Nuclisens washing buffer, twice with 70 % ethanol and once with acetone. The silica pellet was dried for 10 min at 56 °C. Total nucleic acids were eluted by resuspending the pellet in 100 µl nuclease-free water. After mixing the tubes for 10 min at 56 °C, tubes were shortly centrifuged and the supernatant was transferred to a new tube and stored at -20 °C.
Real-time Taqman PCR is based on cleavage of a probe, hybridized to the target sequence by 5'-3' nuclease activity of Taq DNA polymerase during amplification, as described previously ^24. Briefly, target sequence-specific forward and reverse primers prime the amplification reaction. The probe contains a reporter dye at the 5' end and a quencher dye at the 3' end. When both dyes are attached to the probe, reporter dye emission is quenched. The probe is displaced from the target during each polymeration cycle. Once separated from the quencher, the reporter dye emits its characteristic fluorescence, which can then be measured. The amount of fluorescence measured is proportional to the amount of PCR product.
HIV-1 gag cDNA and HIV-1 (-) strong stop and gag DNA were amplified and quantified by real-time Taqman PCR as described elsewhere ^25. Sets of primers/probes were designed according to a previous study by Zack and colleagues ^26. To quantify the amount of gag RNA in the samples, a cDNA standard curve was prepared from five-fold dilutions of extracted RNA from an HXB2 viral batch, of which the RNA amount was previously determined. To quantify (-) strong stop and gag DNA in the samples, a DNA standard curve was prepared from five-fold dilutions of DNA extracted from U1 cells, which contain two copies of the HIV-1HXB2 genome per cell. Albumin was also quantified and used for normalization of all samples.

[6] = system: HEp-2 cells; assay type: cell-based, Human
Description: HEp-2 cells were seeded in 96-wells plates in the presence of APHS for 4, 5 and 6 days. Concentrations of HEp-2 cells were determined by microscopic observation in order to have a confluent monolayer at the day of measurement. Afterwards a cellular viability assay was performed on these cells.

[7] = system: 184V; test: Drug susceptibility assay (cell-killing MTT assay) in MT-2 cells; conditions: Human immunodeficiency virus 1, MT2, 120 h
Description: as §2, §3, §4

[8] = system: chronically HIV-1-infected U1 cell line; test: Infection model with the chronically HIV-1-infected monocytic cell line U1, p24 ELISA; assay type: cell-based; conditions: PMA (100 ng/ml) stimulated, APHS 3, 10 and 30 µM, 2 days
Description: U1 cells (AIDS Reagents, Rockville, […]) were incubated with 100 ng/ml phorbol myristate acetate (PMA; Sigma) or with medium (negative control) for 30 min. Afterwards the cells were washed and seeded in a concentration of 1 × 10^6 cells/ml in RPMI 1640 medium containing 10% FCS and 10 µg/ml gentamycin either with increasing concentrations of APHS or with 30 mM N-acetyl-L-cysteine (NAC; Sigma), which served as a positive control. After 2 days of incubation, samples of the supernatant were collected, inactivated by addition of Empigen and by 30 min incubation at 56°C. The concentration of p24 was determined by ELISA (AMPAK™) as described above.

[9] = system: several HIV-1 strains (macrophage-tropic and/or lymphocytotropic); test: HIV-1 replication in primary cells (summary over strains and cell types); assay type: cell-based; conditions: Human immunodeficiency virus 1, read-out: 50% inhibitory concentration values
Description: (§1) To correct for the input virus, an extra control consisting of medium containing the same amount of input virus as added to the cells was included in the experiment. The amount of p24 in this control was subsequently subtracted from the p24 values of the samples in order to obtain the exact amount of p24 produced by the cells. p24-core antigen quantification by ELISA After 2 or 7 days incubation, samples of the supernatants were collected, inactivated by addition of Empigen (Calbiochem, La Jolla, CA, USA) and by heat inactivation at 56°C for 30 min. p24-core antigen concentration was determined by an enzyme linked immunoabsorbent assay (ELISA) (AMPAK™, DAKO, Cambridgeshire, UK) as described previously ^18,19. The optical density values were converted into p24 concentration (ng/ml) with the use of a calibration curve made by serial dilutions of recombinant p24 protein (NIBSC, UK) that was submitted to the same treatment as the samples.

[10] = system: HIV-1AT; test: HIV-1 infection of PBMC, p24-core antigen ELISA; assay type: cell-based; conditions: Human immunodeficiency virus 1, 168 h; PBMC infected with HIV-1AT, p24 antigen after 7 days
Description: as §1

[11] = system: HIV-1HXB2; test: HIV-1 infection of PBMC, p24-core antigen ELISA; assay type: cell-based; conditions: Human immunodeficiency virus 1, 168 h; PBMC infected with HIV-1HXB2, p24 antigen after 7 days
Description: as §1

Q: What does the source list for `CCCCC#CCSc1ccccc1OC(C)=O` [APHS, o-(acetoxyphenyl)hept-2-ynyl sulfide]?
A: IC50 [1]: 10 µM; toxicity for MT2 cells [2]: did not show any significant toxicity; CC50 at 168 h [3]: 147 µM; CC50 at 168 h [4]: 235 µM; gag cDNA levels versus untreated PBMC ([5]; 10 µM APHS): no significant differences; (-) strong stop DNA copy numbers versus untreated PBMC ([5]; 10 or 30 µM APHS, 5 or 1000 nM AZT): did not show a significant decrease; inhibition at 30 µM ([5]; Human immunodeficiency virus 1, 30 µM APHS, PBMC, read-out: inhibited gag production): 60%; cellular viability significantly decreased at concentrations above [6]: above 10 µM; cytotoxicity for HEp-2 cells [6]: not cytotoxic; IC50 [7]: 5 µM; HIV-1 production (p24) by U1 cells [8]: not capable of inhibiting HIV-1 production; IC50 [9]: ~10 µM; IC50 [10]: 7 µM; IC50 [11]: 11 µM

Source: patent EP1452605A1, “Method for determining antiviral activity” (Universiteit Utrecht Holding B.V., priority 2003, dated 2004)
